Assay results reported in ChEMBL document CHEMBL1201862, “PubChem BioAssay data set” (2004).
Activity calls are given as the source filed them.

Experiments:
[1] = viability of HCT116 lacking mutant beta-catenin – cell-based, human colon tumor, dose response (AID 1045); format: functional;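 note: HCT116 colon tumor cells with beta catenin knocked out; cells exposed to compound for 60 hours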
[2] = viability of PTEN-deleted HCT116 cells – cell-based, HCT116 PTEN knockout, dose response (AID 1047); format: functional;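 note: HCT116 colon tumor cells with PTEN knocked out; cells exposed to compound for 60 hours before readout; potency for loss of cell viability measured by luminescence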
[3] = target: T1, Ubiquitin-conjugating enzyme E2 N (Homo sapiens, UniProt P61088); format: functional;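 note: Dose-response confirmation in a TR-FRET assay detecting UBC13-driven polyubiquitin chain formation, inhibition measured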
T1 sequence (P61088 whole entry): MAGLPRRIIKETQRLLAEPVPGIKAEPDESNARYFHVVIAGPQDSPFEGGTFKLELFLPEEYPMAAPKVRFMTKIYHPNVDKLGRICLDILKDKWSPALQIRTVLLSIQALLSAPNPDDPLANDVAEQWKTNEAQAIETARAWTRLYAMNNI

[4] = intracellular Trypanosoma cruzi inhibitors in host cells – cell-based, plate reader, cherry-pick samples, set 3, dose response (AID 651818); format: functional;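 note: compounds incubated with infected cells for about four days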
[5] = target: Genome polyprotein (dengue virus type 2, UniProt P29990); assay: flavivirus cap methylation enzyme inhibition – biochemical, confirmation dose response, primary screen (AID 588689); format: functional
Chain of Genome polyprotein (P29990 2492-3391 limits assumed): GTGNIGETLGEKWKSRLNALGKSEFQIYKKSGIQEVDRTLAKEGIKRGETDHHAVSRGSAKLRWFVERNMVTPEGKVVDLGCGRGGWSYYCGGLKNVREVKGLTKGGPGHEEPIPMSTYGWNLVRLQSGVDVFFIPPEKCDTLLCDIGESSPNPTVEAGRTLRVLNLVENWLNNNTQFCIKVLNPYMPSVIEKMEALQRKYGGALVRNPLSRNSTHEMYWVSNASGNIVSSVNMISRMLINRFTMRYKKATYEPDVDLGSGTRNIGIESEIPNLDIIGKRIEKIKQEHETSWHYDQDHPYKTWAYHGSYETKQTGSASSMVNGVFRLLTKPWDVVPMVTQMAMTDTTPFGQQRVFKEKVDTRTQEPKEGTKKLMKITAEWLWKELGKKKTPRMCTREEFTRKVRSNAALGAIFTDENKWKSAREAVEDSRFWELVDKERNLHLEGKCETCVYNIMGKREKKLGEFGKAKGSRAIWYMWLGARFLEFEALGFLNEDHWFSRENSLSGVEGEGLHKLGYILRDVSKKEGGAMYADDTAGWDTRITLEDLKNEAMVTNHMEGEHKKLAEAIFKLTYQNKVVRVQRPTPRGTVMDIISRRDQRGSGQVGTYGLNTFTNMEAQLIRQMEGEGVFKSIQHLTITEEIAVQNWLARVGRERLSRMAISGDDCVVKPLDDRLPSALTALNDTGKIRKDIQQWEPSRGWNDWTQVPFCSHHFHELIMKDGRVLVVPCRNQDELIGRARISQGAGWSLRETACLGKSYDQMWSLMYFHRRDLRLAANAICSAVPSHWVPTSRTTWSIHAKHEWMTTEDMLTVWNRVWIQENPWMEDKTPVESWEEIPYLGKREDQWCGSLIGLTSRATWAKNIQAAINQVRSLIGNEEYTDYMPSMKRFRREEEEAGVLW

[6] = target: T2, Polyadenylate-binding protein 1 (Homo sapiens, UniProt P11940); assay: MLLE domain peptide-binding blockers, IC50 – biochemical, fluorescence polarization, FITC-PAM2 peptide, dose response (AID 602259); format: functional; settings: read-out: IC50_Mean
T2 sequence (P11940 whole entry, the tested form may be a part): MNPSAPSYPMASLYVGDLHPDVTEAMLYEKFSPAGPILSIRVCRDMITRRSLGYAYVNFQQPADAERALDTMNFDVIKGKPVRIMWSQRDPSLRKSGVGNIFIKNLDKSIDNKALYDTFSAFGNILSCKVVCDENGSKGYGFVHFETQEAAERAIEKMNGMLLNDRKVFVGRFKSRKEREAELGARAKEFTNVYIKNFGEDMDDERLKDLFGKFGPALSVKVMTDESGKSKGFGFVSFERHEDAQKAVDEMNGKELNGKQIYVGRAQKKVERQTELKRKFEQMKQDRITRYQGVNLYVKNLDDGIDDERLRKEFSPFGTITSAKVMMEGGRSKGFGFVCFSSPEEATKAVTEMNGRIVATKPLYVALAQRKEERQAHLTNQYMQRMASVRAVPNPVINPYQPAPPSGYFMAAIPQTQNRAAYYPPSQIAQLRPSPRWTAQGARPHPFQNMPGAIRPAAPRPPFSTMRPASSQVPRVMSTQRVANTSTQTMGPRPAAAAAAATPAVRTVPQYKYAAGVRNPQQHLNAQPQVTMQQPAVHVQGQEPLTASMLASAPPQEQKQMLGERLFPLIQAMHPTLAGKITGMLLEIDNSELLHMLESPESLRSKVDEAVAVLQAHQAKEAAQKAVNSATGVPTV

[7] = target: T2, Polyadenylate-binding protein 1; assay: MLLE binding blockers, Cy5 peptide tracer – biochemical, fluorescence polarization, Cy5-PAM2 peptide, secondary, miRNA deadenylation inhibitor project, dose response (AID 602260); format: functional; settings: read-out: IC50_Mean
[8] = target: Cytochrome P450 3A4 (Homo sapiens, UniProt P08684);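 note: CYP3A4 tested as one member of a cytochrome P450 panel screen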
Chain of Cytochrome P450 3A4 (P08684 whole entry): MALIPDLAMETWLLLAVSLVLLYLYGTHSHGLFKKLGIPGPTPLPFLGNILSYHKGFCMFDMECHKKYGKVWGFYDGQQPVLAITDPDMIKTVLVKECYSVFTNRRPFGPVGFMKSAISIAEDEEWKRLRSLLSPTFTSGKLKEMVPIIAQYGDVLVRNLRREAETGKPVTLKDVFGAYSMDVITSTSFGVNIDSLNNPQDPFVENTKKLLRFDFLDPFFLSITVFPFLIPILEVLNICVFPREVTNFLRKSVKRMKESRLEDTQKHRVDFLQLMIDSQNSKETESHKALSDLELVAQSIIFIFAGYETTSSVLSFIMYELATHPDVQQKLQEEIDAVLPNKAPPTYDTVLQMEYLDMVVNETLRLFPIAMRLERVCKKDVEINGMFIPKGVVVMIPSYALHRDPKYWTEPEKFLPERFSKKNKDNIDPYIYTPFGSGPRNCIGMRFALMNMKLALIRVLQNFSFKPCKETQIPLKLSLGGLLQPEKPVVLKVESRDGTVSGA

[9] = target: Cytochrome P450 2C9 (Homo sapiens, UniProt P11712)
Chain of Cytochrome P450 2C9 (P11712 whole entry): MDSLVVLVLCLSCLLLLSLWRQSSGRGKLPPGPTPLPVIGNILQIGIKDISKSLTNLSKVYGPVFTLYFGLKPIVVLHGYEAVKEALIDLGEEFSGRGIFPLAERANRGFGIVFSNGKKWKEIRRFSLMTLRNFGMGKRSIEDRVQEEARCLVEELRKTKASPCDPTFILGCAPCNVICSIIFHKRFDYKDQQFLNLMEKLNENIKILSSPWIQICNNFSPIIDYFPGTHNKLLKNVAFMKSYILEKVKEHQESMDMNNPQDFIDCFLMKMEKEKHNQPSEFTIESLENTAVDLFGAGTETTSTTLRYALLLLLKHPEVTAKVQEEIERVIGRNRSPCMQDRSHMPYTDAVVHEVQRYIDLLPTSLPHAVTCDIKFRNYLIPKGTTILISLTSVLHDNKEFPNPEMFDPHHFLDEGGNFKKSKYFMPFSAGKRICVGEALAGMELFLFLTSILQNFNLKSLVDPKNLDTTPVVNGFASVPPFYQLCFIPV

[10] = target: Luciferin 4-monooxygenase (Photinus pyralis, UniProt P08659); assay: inhibition of purified Photinus pyralis luciferase – biochemical, luminescence, dose response (AID 1891)
Chain of Luciferin 4-monooxygenase (P08659 whole entry, the tested form may be a part): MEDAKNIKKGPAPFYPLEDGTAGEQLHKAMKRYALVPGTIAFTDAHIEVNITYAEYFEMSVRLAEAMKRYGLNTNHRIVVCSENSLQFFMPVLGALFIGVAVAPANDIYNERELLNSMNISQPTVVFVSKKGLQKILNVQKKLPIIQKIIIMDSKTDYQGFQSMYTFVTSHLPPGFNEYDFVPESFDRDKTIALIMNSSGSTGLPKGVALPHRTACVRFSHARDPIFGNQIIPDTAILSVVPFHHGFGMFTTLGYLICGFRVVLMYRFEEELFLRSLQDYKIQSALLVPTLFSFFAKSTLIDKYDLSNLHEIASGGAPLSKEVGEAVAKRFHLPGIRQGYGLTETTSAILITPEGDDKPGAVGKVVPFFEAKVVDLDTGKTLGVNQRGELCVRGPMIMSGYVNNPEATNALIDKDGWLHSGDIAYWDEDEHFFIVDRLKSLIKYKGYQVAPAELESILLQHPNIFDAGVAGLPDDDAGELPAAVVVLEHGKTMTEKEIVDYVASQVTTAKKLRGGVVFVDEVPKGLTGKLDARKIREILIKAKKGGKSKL

[11] = target: T3, RNA-binding protein pos-1 (Caenorhabditis elegans, UniProt G5EF15); assay: disruptors of C. elegans POS-1 RNA interaction – biochemical, fluorescence polarization, dose response (AID 1964);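 note: purified POS-1 fused to maltose binding protein made in E. coli; potency of compounds blocking POS-1 binding to fluorescent RNA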
T3 sequence (G5EF15 whole entry): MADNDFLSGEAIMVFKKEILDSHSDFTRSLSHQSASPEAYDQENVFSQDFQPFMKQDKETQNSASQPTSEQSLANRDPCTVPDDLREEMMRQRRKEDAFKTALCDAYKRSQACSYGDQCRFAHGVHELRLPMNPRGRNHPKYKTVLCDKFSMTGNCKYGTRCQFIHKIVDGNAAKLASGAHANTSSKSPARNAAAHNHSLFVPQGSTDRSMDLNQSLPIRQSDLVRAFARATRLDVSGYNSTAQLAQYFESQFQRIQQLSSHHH

[12] = target: T4, Zinc finger protein mex-5 (Caenorhabditis elegans, UniProt Q9XUB2); assay: potency of MEX-5 RNA-binding blockers – biochemical, C. elegans, fluorescence polarization, dose response (AID 1960)
T4 sequence (Q9XUB2 whole entry): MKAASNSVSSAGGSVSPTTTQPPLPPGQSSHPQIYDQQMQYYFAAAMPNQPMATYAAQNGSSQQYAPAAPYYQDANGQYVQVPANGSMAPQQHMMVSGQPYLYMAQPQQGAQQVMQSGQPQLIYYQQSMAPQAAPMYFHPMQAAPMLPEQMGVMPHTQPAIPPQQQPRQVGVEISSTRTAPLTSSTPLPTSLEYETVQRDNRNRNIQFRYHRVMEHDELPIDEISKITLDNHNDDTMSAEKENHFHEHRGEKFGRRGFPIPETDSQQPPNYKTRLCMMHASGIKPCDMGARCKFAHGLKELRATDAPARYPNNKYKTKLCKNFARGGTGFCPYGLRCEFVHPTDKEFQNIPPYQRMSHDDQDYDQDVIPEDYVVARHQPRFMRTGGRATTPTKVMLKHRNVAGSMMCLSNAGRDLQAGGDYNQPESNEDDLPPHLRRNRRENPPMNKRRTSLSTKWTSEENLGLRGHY

Structure (SMILES)	AC50 [4]	IC50 [6]	IC50 [7]	other results
CN1CCN(c2ccc(S(=O)(=O)N3CCCCC3)cc2NC(=O)c2ccc3ccccc3c2)CC1				EC50 [1]: 17.8 µM (active); EC50 [2]: 16 µM (active); IC50 [3]: > 20 µM (inactive)
C[C@H](CO)N1C[C@H](C)[C@H](CN(C)Cc2ccc(C(F)(F)F)cc2)Oc2c(NC(=O)Nc3ccc(C(F)(F)F)cc3)cccc2C1=O	4.77 µM (active)			
C[C@@H]1CN([C@@H](C)CO)C(=O)Cc2cc(NC(=O)Nc3cccc4ccccc34)ccc2O[C@@H]1CN(C)Cc1ccc(-c2ccccc2)cc1	3.22 µM (active)			
O=C(c1ccc(NC(=O)C(c2ccccc2)c2ccccc2)cc1)c1ccc(C(=O)O)c(C(=O)O)c1				IC50 [5]: 57.6 µM (active)
C[C@H]1CN([C@@H](C)CO)C(=O)c2cc(NC(=O)Cc3cn(C)c4ccccc34)ccc2O[C@H]1CN(C)S(=O)(=O)c1ccc(Cl)cc1	2.81 µM (active)			
COc1ccc(S(=O)(=O)Nc2cccc3c2O[C@@H](CN(C)Cc2ccc(C(=O)Nc4ccccc4N)cc2)[C@@H](C)CN([C@H](C)CO)C3=O)cc1	4.14 µM (active)			
CCOC(=O)CNC(=O)CSc1nc(-c2cccc(C)c2)ns1		> 66 µM (inactive)	> 66 µM (inactive)	
O=C(NC(=S)Nc1ccc(C(=O)N2CCOCC2)cc1)c1ccc([N+](=O)[O-])cc1		> 66 µM (inactive)	> 66 µM (inactive)	AC50 [8]: 1.41 µM (inconclusive); AC50 [9]: 0.891 µM (inconclusive)
Cc1noc(C)c1-c1csc(N2CCC(C(N)=O)CC2)n1		> 66 µM (inactive)	> 66 µM (inactive)	
C[C@H]1CN([C@@H](C)CO)C(=O)Cc2cc(NS(=O)(=O)c3ccc(F)cc3)ccc2O[C@H]1CN(C)Cc1ccc(C(=O)Nc2ccccc2N)cc1	2.64 µM (active)			
O=c1[nH]c2ccc(NC(=S)Nc3ccccc3Cl)cc2[nH]1		> 66 µM (inactive)	> 66 µM (inactive)	EC50 [10]: > 112 µM (not active)
C[C@H](CO)N1C[C@H](C)[C@@H](CN(C)Cc2ccc(C(=O)Nc3ccccc3N)cc2)Oc2c(NC(=O)C3CC3)cccc2C1=O	1.13 µM (active)			
O=C(NN=Cc1sc(=O)[n-]c1-[n+]1ccc(-c2ccncc2)cc1)c1ccccc1O		42.7 µM (inactive)	33.3 µM (inactive)	EC50 [11]: 11.9 µM (active); EC50 [12]: 10.7 µM (active)
